Among the data in PMC3701632, “Kinetic Features of L,D-Transpeptidase Inactivation Critical for β-Lactam Antibacterial Activity” (PLoS ONE, 2013) are Kd, kcat and K0.5 values, retold here.

As a reminder, the Kd is the constant that tells how readily two partners part at equilibrium. As usually defined, the kcat is the maximal rate divided by the concentration of active sites.

The target in data set [1] is T1, Ldtfm catalytic domain (LdtfmC442A) (Enterococcus faecium, UniProt Q3Y185, C442A).
T1 construct: gene HMPREF0351_12555
Kind of data set: biochemical.

Data set [2] deals with CO/N=C(\C(=O)N[C@@H]1C(=O)N2C(C(=O)O)=C(CSc3nc(=O)c(=O)[nH]n3C)CS[C@H]12)c1csc(N)n1. Kind of data set: purified protein. In kind it is biochemical, Enterococcus faecium. To be noted: covalent acylenzyme turnover, saturable step assigned to oxyanion formation, 5 µM enzyme, 100 mM sodium phosphate pH 6.0, 20°C.
For data set [3], the system named is CC1(C)S[C@@H]2[C@H](NC(=O)[C@H](N)c3ccccc3)C(=O)N2[C@H]1C(=O)O. Briefly: purified protein. The note with it: covalent acylenzyme turnover, saturable step assigned to oxyanion formation, 5 µM enzyme, 100 mM sodium phosphate pH 6.0, 20°C. The format is biochemical, Enterococcus faecium.

T1 sequence (Q3Y185 341-466 C442A): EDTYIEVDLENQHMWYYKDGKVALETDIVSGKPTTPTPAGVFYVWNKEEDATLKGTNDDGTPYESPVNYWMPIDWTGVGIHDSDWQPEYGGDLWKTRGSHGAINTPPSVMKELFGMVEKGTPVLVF

In turn, `C[C@@H](O)[C@H]1C(=O)N2C(C(=O)O)=C(S[C@@H]3CN[C@H](C(=O)Nc4cccc(C(=O)O)c4)C3)[C@H](C)[C@H]12` [ertapenem] returned a dissociation constant (Kd) in data set [1] of 50 mM.

`CC1(C)S[C@@H]2[C@H](NC(=O)[C@H](N)c3ccccc3)C(=O)N2[C@H]1C(=O)O` [ampicillin] had a Kd in data set [1] of 79 mM.

For `CO/N=C(\C(=O)N[C@@H]1C(=O)N2C(C(=O)O)=C(CSc3nc(=O)c(=O)[nH]n3C)CS[C@H]12)c1csc(N)n1` [ceftriaxone], the Kd in data set [1] was 44 mM.

Consider Ldtfm (Enterococcus faecium DO), for which the kcat in data set [2] came to 0.00045 ± 5e-05 s⁻¹. Besides, in data set [3], the K0.5 was 370 ± 30 µM and the kcat was determined as 0.003 ± 0.00017 s⁻¹.
